# Where two headings read alike, the source gives them in different places.
# Experiments:
# [1] = system: Mycobacterium tuberculosis H37Ra ITM-M006710 (ATCC 9431); test: Antimycobacterial microdilution (resazurin) vs Mtb H37Ra; assay type: cell-based; settings: Middlebrook 7H9, resazurin, recalculated from µg/mL, read-out: MIC Mtb H37Ra
# [2] = system: Mycobacterium tuberculosis H37Rv CNCTC My 331/88 (ATCC 27294); test: Microplate Alamar Blue assay vs Mtb H37Rv; assay type: cell-based; settings: Middlebrook 7H9 pH 6.6, recalculated from µg/mL, read-out: MIC Mtb H37Rv
# [3] = system: Mycobacterium kansasii DSM 44,162 (ATCC 12478); test: Antimycobacterial microdilution (resazurin) vs M. kansasii; assay type: cell-based; settings: read-out: MIC M. kansasii
# [4] = system: Mycobacterium avium DSM 44,156 (ATCC 25291); test: Antimycobacterial microdilution (resazurin) vs M. avium; assay type: cell-based; settings: Mycobacterium avium, Middlebrook 7H9, resazurin; read-out: MIC M. avium
# [5] = system: Mycolicibacterium aurum DSM 43,999 (ATCC 23366); test: Antimycobacterial microdilution (resazurin) vs M. aurum; assay type: cell-based; settings: Middlebrook 7H9, resazurin, read-out: MIC M. aurum
# [6] = system: Mycolicibacterium smegmatis DSM 43,465 (ATCC 607); test: Antimycobacterial microdilution (resazurin) vs M. smegmatis; assay type: cell-based; settings: Middlebrook 7H9, resazurin, read-out: MIC M. smeg.
# [7] = system: Staphylococcus aureus subsp. aureus CCM 4223 (ATCC 29213); test: Antibacterial microdilution broth (EUCAST); assay type: cell-based; settings: read-out: MIC Staphylococcus aureus subsp. aureus
# [8] = system: methicillin-resistant Staphylococcus aureus subsp. aureus (MRSA) CCM 4750 (ATCC 43300); test: microbe, parasite or virus in culture; assay type: cell-based; settings: read-out: MIC Methicillin-resistant Staphylococcus aureus subsp. aureus
# [9] = system: Staphylococcus epidermidis CCM 4418 (ATCC 12228); test: Antibacterial microdilution broth (EUCAST); assay type: cell-based; settings: read-out: MIC Staphylococcus epidermidis
# [10] = system: Enterococcus faecalis CCM 4224 (ATCC 29212); test: Antibacterial microdilution broth (EUCAST); assay type: cell-based; settings: read-out: MIC Enterococcus faecalis
# [11] = system: Escherichia coli CCM 3954 (ATCC 25922); test: Antibacterial microdilution broth (EUCAST); assay type: cell-based; settings: Escherichia coli, read-out: MIC Escherichia coli
# [12] = system: Klebsiella pneumoniae CCM 4415 (ATCC 10031); test: Antibacterial microdilution broth (EUCAST); assay type: cell-based; settings: Klebsiella pneumoniae, read-out: MIC Klebsiella pneumoniae
# [13] = system: Acinetobacter baumannii DSM 30007 (ATCC 19606); test: Antibacterial microdilution broth (EUCAST); assay type: cell-based; settings: read-out: MIC Acinetobacter baumannii
# [14] = system: Pseudomonas aeruginosa CCM 3955 (ATCC 27853); test: Antibacterial microdilution broth (EUCAST); assay type: cell-based; settings: read-out: MIC Pseudomonas aeruginosa
# [15] = system: Candida albicans CCM 8320 (ATCC 24433); test: Antifungal microdilution broth (EUCAST); assay type: cell-based; settings: Candida albicans, read-out: MIC Candida albicans
# [16] = system: Candida krusei CCM 8271 (ATCC 6258); test: Antifungal microdilution broth (EUCAST); assay type: cell-based; settings: Pichia kudriavzevii, read-out: MIC Candida krusei
# [17] = system: Candida parapsilosis CCM 8260 (ATCC 22019); test: Antifungal microdilution broth (EUCAST); assay type: cell-based; settings: Lodderomyces parapsilosis, read-out: MIC Candida parapsilosis
# [18] = system: Candida tropicalis CCM 8264 (ATCC 750); test: Antifungal microdilution broth (EUCAST); assay type: cell-based; settings: read-out: MIC Candida tropicalis
# [19] = system: Aspergillus fumigatus ATCC 204305; test: Antifungal microdilution broth (EUCAST); assay type: cell-based; settings: Aspergillus fumigatus, ATCC204305, read-out: MIC Aspergillus fumigatus
# [20] = system: Aspergillus flavus CCM 8363; test: Antifungal microdilution broth (EUCAST); assay type: cell-based; settings: Aspergillus flavus, CCM8363, read-out: MIC Aspergillus flavus
# [21] = system: Lichtheimia corymbifera CCM 8077; test: Antifungal microdilution broth (EUCAST); assay type: cell-based; settings: Lichtheimia corymbifera, CCM8077, read-out: MIC Lichtheimia corymbifera
# [22] = system: Trichophyton interdigitale CCM 8377 (ATCC 9533); test: Antifungal microdilution broth (EUCAST); assay type: cell-based; settings: Trichophyton interdigitale, read-out: MIC Trichophyton interdigitale
# HepG2 cell line = test: Cytotoxicity screening, CellTiter 96 assay; settings: for IC50: Homo sapiens, HepG2, 24 h, read-out: IC50 HepG2
# [23] = Mycobacterium tuberculosis, pH 6.6, MABA
structure (smiles),measurement,setting,value
"O=C(Nc1ccc2c(c1)B(O)OC2)c1ccc(C(F)(F)F)nc1 [Compound 12, N-(1-hydroxy-1,3-dihydrobenzo[c][1,2]oxaborol-6-yl)-6-(trifluoromethyl)nicotinamide]",MIC,[1],194 µM
same,MIC,[2]; [23],155 µM
same,MIC,[3],194 µM
same,MIC,[4],388 µM
same,MIC,[5],12.1 µM
same,MIC,[6],24.2 µM
same,MIC,[7]; 24h incubation,> 500 µM
same,MIC,[7]; 48h incubation,> 500 µM
same,MIC,[8]; 24 h,> 500 µM
same,MIC,[8]; 48 h,> 500 µM
same,MIC,[9]; 24h incubation,> 500 µM
same,MIC,[9]; 48h incubation,> 500 µM
same,MIC,[10]; 24h incubation,> 500 µM
same,MIC,[10]; 48h incubation,> 500 µM
same,MIC,[11]; 24h incubation,> 500 µM
same,MIC,[11]; 48h incubation,> 500 µM
same,MIC,[12]; 24h incubation,> 500 µM
same,MIC,[12]; 48h incubation,> 500 µM
same,MIC,[13]; 24h incubation,> 500 µM
same,MIC,[13]; 48h incubation,> 500 µM
same,MIC,[14]; 24h incubation,> 500 µM
same,MIC,[14]; 48h incubation,> 500 µM
same,MIC,[15]; 24h incubation,> 500 µM
same,MIC,[15]; 48h incubation,> 500 µM
same,MIC,[16]; 24h incubation,> 500 µM
same,MIC,[16]; 48h incubation,> 500 µM
same,MIC,[17]; 24h incubation,> 500 µM
same,MIC,[17]; 48h incubation,> 500 µM
same,MIC,[18]; 24h incubation,> 500 µM
same,MIC,[18]; 48h incubation,> 500 µM
same,MIC,[19]; 24h incubation,> 500 µM
same,MIC,[19]; 48h incubation,> 500 µM
same,MIC,[20]; 24h incubation,> 500 µM
same,MIC,[20]; 48h incubation,> 500 µM
same,MIC,[21]; 24h incubation,> 500 µM
same,MIC,[21]; 48h incubation,> 500 µM
same,MIC,[22]; 72h incubation,> 500 µM
same,MIC,[22]; 120h incubation,> 500 µM
same,melting point,,227.3 to 229.4 °C
same,IC50,HepG2 cell line,> 250 µM
same,toxicity to HepG2 up to highest tested concentration,"HepG2 cell line; tested up to 500 µM (2, 3), 250 µM (12, 17), 100 µM (6, 7, 11) because of solubility",non-toxic
"O=C(Nc1ccc2c(c1)B(O)OC2)c1ccc(O)nc1 [Compound 13, 6-hydroxy-N-(1-hydroxy-1,3-dihydrobenzo[c][1,2]oxaborol-6-yl)nicotinamide]",MIC,[1],463 µM
same,MIC,[2]; MABA,>370.30 µM
same,MIC,[2]; [23],> 370 µM
same,MIC,"[3]; Middlebrook 7H9, resazurin",116 µM
same,MIC,[4],463 µM
same,MIC,[5],116 µM
same,MIC,[6],116 µM
same,MIC,[7]; 24h incubation,> 500 µM
same,MIC,[7]; 48h incubation,> 500 µM
same,MIC,[8]; 24 h,> 500 µM
same,MIC,[8]; 48 h,> 500 µM
same,MIC,[9]; 24h incubation,> 500 µM
same,MIC,[9]; 48h incubation,> 500 µM
same,MIC,[10]; 24h incubation,> 500 µM
same,MIC,[10]; 48h incubation,> 500 µM
same,MIC,[11]; 24h incubation,> 500 µM
same,MIC,[11]; 48h incubation,> 500 µM
same,MIC,[12]; 24h incubation,> 500 µM
same,MIC,[12]; 48h incubation,> 500 µM
same,MIC,[13]; 24h incubation,> 500 µM
same,MIC,[13]; 48h incubation,> 500 µM
same,MIC,[14]; 24h incubation,> 500 µM
same,MIC,[14]; 48h incubation,> 500 µM
same,MIC,[15]; 24h incubation,> 500 µM
same,MIC,[15]; 48h incubation,> 500 µM
same,MIC,[16]; 24h incubation,> 500 µM
same,MIC,[16]; 48h incubation,> 500 µM
same,MIC,[17]; 24h incubation,> 500 µM
same,MIC,[17]; 48h incubation,> 500 µM
same,MIC,[18]; 24h incubation,> 500 µM
same,MIC,[18]; 48h incubation,> 500 µM
same,MIC,[19]; 24h incubation,> 500 µM
same,MIC,[19]; 48h incubation,> 500 µM
same,MIC,[20]; 24h incubation,> 500 µM
same,MIC,[20]; 48h incubation,> 500 µM
same,MIC,[21]; 24h incubation,> 500 µM
same,MIC,[21]; 48h incubation,> 500 µM
same,MIC,[22]; 72h incubation,> 500 µM
same,MIC,[22]; 120h incubation,> 500 µM
same,melting point,,304.8 to 306.9 °C
same,IC50,HepG2 cell line,> 1000 µM
